Assay results: patent US20250090729A1, “Methods and Products to Detect, Minimize and Treat TRAP-Related Tissue Reactions and Tissue Injury Associated With Medical Devices” (priority 2022, published 2025)
Entries after “also recorded” stand apart in the source; their conditions may differ.

Legend:
human neutrophils = experiment: In vitro TRAP formation by human blood neutrophils (PMNs) cultured with test agents; assay type: cell-based; details: for TRAP formation in human neutrophils: FIG. 12, human blood neutrophils cultured with agent; for TRAP formation at higher dilution than 1/5: PMNs; for TRAP formation at 1/5 dilution: PMNs of 3 donors, 4 hr timeline, vs negative control
Method: From left to right and top to bottom (A)-(F), media only (A) and PMA (B), a known inducer of TRAPS in human neutrophils, present positive control.
PMA=phorbol myristate acetate; Insulin is Humalog (Lilly); LPS is a bacterial endotoxin (known inducers of TRAPs.
Green color (light color in grayscale) indicates the existence of TRAPs. In each slide set, the upper left slide is the control with media only. The upper right slide is Humalog insulin in media at 1/5 dilution (0.6 mg m-cresol/ml, with 0.6 mg/ml of insulin), PMA concentrations are in ng/ml and the lower right slide is m-cresol at 1/5 dilution (0.6 mg/ml of m-cresol). In this study, the media was RPMI 1640 (phenol free).
In these examples, human blood neutrophils were placed in a culture dish+/−sensors in vitro. […] Brightfield refers to the use of non-fluorescent white light (78a). […] In FIG. 79, neutrophils were added to tissue culture dishes that contained a sensor (commercial type #1) to see if the sensor could directly trigger neutrophil death and TRAP release which we detect with fluorescent dyes like sytox green. FIG. 79a-c had no neutrophils added to the sensors. In FIG. 79d-f neutrophils were added. The sytox green binds to DNA, and fluoresces green in color photo, or white in black and white photos. […] “Merged” refers to photos in which the non-fluorescent (brightfield) and fluorescent photos are merged into a single photo FIG. 79c.

porcine skin = experiment: In vivo TRAP formation at infusion/injection sites in swine skin (H&E histology); details: infused continuously over a 5- to 7-day period
Description: The presence of the purple web appearance is indicated by the black arrows.
White area in the center of the image is the previous location of the injection port.

CNc1ccc2oc(C[C@H]3O[C@@]4(CC[C@H]3C)O[C@H]([C@H](C)C(=O)c3ccc[nH]3)[C@H](C)C[C@H]4C)nc2c1C(=O)O [A23187, calcimycin]
TRAPs in neutrophils, positive control (human neutrophils; FIG. 77 d-f, human neutrophils in culture dish): triggers TRAPs

CCCCCCCCCCCCCC(=O)O[C@@H]1[C@@H](C)[C@@]2(O)[C@@H](C=C(CO)C[C@]3(O)C(=O)C(C)=C[C@@H]23)[C@@H]2C(C)(C)[C@]12OC(C)=O [PMA, phorbol myristate acetate]
TRAPs at 30 minutes (human neutrophils; FIG. 60B, human PMNs, RPMI 1640): presence of TRAPs | TRAPs at 60 minutes (human neutrophils; FIG. 60C, Humalog insulin 1/5 dilution): significant TRAPs | TRAP formation in PMNs of 3 donors (human neutrophils; dilution not specified, positive controls and insulin fibrils lacking PP): trigger TRAP formation; also recorded: triggered TRAPs | time after exposure until TRAPs are triggered (human neutrophils; human PMNs, commercial insulin and m-cresol at 1/5 dilution): ≤ 60 min

Cc1cccc(O)c1 [m-cresol]
TRAPS in swine tissue (porcine skin): presence of TRAPS | TRAP formation in human neutrophils (human neutrophils): trigger TRAP formation | TRAPs from 120 minutes to 150 minutes (human neutrophils; FIGS. 60E-60F, 1/5 dilution (0.6 mg/ml m-cresol)): significant increase in the presence of TRAPs | number and size of TRAPs from 180 minutes to 240 minutes (human neutrophils; FIGS. 60G-60I, 1/5 dilution): remained relatively stable | TRAP formation at higher dilution than 1/5 (human neutrophils): weak to no TRAP formation | TRAP formation at 1/5 dilution (human neutrophils): strong

Oc1ccccc1 [phenol]
TRAP formation in human neutrophils (human neutrophils): trigger TRAP formation | TRAP formation at higher dilution than 1/5 (human neutrophils): weak to no TRAP formation | TRAP formation at 1/5 dilution (human neutrophils): triggered TRAP formation | TRAP formation at 1/5 dilution (human neutrophils; listed as Phenol): strong traps
